Assay results reported in patent US20120202876A1, “METHODS OF TREATING DISEASES WITH PROANTHOCYANIDIN OLIGOMERS SUCH AS CROFELEMER” (NAPO PHARMACEUTICALS, INC., priority 2009, published 2012).

Biological target: T1, human CFTR (Homo sapiens, UniProt P13569)
T1 construct: expressed in transfected cells
Test: Apical membrane Cl− current in CFTR-expressing FRT cells
Assay type: cell-based
Conditions: for inhibition of CFTR after crofelemer pre-treatment: 50 μM crofelemer added first; for IC50 in absence versus presence of crofelemer: 50 μM crofelemer pre-added
Protocol: CFTR Cl^− current was measured in CFTR-expressing FRT cells in which the basolateral membrane was permeabilized by amphotericin B and a transepithelial Cl^− gradient was applied. Under these conditions, the measured current provides a direct quantitative measure of CFTR Cl^− conductance.
Measurements were done to investigate whether the Crofelemer inhibition potency depended on the CFTR activation mechanism. […] The reversibility of crofelemer inhibition of CFTR was investigated, since washout during secretory diarrhea is a concern in the use of a non-absorbable antisecretory agent. […] Following extensive washing, residual CFTR inhibition was determined from the current after re-stimulation by CPT-cAMP.
Comparisons of CFTR inhibition in the absence and presence of pre-added crofelemer tested the possibility that the site of action of crofelemer on CFTR might overlap with that of the small-molecule thiazolidinone and glycine hydrazide CFTR inhibitors.
FRT cells expressing human TMEM16A (cDNA provided by Dr. Luis Galietta, Gaslini Institute, Genoa, Italy) were generated similarly. FRT cells were cultured in F-12 Modified Coon's Medium (Sigma) supplemented with 10% fetal bovine serum (Hyclone), 2 mM glutamine, 100 units/ml penicillin, 100 μg/ml streptomycin, 350 μg/ml hygromycin and 500 μg/ml geneticin. […] T84 cells were cultured in DMEM/Ham's F-12 (1:1) medium containing 10% FBS, 100 units/ml penicillin and 100 μg/ml streptomycin.
FRT cells (stably expressing CFTR or TMEM16A) were cultured on Snapwell filters until confluence (transepithelial resistance >500 ohm.cm). Short-circuit current was measured in Ussing chambers (Vertical diffusion chamber; Costar) with Ringer's solution bathing the basolateral surface and half-Ringer's bathing the apical surface. Ringer's solution contained: 130 mM NaCl, 2.7 mM KCl, 1.5 mM KH2PO4, 1 mM CaCl2, 0.5 mM MgCl2, 10 mM Na-HEPES, 10 mM glucose, pH 7.3. Half-Ringer's solution was the same, except that 65 mM NaCl was replaced with Na gluconate, and CaCl2 was increased to 2 mM. […] Chambers were bubbled continuously with air. For T84 cells and bronchial epithelial cells, cells were bathed in symmetrical HCO3—buffered solution containing (in mM): 120 NaCl, 5 KCl, 1 MgCl2, 1 CaCl2, 10 D-glucose, 5 HEPES, and 25 NaHCO3 (pH 7.4), and aerated with 5% CO2 at 37° C. For the measurement of apical K+ conductance in T84 cells, NaHCO3 and NaCl were replaced with Na gluconate, and Na gluconate in basolateral solution was replaced with K gluconate and bubbled with air. The basolateral membrane was permeabilized with 20 μM amphotericin B. Short-circuit current was measured using a DVC-1000 voltage-clamp apparatus (World Precision Instruments).

T1 sequence (P13569 whole entry): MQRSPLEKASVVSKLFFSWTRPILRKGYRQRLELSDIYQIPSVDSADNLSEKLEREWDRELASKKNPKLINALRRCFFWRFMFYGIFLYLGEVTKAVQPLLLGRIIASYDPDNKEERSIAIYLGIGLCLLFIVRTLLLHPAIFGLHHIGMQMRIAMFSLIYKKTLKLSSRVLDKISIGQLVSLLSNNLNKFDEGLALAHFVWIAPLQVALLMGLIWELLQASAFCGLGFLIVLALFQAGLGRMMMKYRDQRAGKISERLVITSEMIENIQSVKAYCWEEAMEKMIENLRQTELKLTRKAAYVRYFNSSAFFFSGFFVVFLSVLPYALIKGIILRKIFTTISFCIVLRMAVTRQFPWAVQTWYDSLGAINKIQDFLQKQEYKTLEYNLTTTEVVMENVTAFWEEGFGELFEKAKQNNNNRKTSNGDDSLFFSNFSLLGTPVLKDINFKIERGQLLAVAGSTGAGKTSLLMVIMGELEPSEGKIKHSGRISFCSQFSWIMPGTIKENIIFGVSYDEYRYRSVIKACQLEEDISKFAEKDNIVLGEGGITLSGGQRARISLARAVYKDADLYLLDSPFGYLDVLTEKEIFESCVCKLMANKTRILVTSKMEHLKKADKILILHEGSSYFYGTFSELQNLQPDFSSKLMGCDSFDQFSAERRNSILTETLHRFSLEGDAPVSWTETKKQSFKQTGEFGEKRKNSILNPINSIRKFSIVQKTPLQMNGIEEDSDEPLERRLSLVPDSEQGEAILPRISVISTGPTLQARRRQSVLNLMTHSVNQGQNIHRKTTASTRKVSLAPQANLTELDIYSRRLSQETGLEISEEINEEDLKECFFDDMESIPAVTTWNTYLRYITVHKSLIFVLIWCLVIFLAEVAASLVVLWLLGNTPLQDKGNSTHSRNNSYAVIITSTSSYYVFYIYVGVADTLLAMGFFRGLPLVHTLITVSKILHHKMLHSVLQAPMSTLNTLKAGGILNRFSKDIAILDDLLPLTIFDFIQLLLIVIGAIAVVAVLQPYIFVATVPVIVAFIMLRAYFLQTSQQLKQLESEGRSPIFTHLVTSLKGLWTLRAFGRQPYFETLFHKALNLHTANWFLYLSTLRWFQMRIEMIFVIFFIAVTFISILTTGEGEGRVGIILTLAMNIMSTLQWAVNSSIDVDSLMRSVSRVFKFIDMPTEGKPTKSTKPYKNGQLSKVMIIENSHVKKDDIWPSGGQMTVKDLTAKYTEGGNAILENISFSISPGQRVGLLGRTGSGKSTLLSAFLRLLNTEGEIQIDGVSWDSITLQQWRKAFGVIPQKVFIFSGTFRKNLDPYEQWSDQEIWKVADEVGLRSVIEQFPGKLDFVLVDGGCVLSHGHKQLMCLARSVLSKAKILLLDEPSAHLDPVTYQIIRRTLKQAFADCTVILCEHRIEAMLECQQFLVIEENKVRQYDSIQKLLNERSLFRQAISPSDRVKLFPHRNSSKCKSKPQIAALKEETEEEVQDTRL

Compound	inhibition of CFTR after crofelemer pre-treatment [%]	IC50 in absence versus presence of crofelemer	IC50 (CFTR activated by CPT-cAMP, basolateral membrane permeabilized, Cl− gradient, inhibitor in apical solution, read-out: apparent IC50 for inhibition of CFTR Cl− current) [µM]
O=C(CNc1ccc2ccccc2c1)N/N=C/c1cc(Br)c(O)c(Br)c1O [GlyH-101]	~100	similar	~8
CFTRinh-172	~100	similar	–
